Measured values as given in paper PMC8769378, “Underlining the Importance of Peripheral Protic Functional Groups to Enhance the Proton Exchange of Gd-Based MRI Contrast Agents” (Inorganic Chemistry, 2021).

Assay: Stability and protonation constants of Cu^II complexes by spectrophotometry
Type: physicochemical
Protocol: The stability constants of CuL2 were determined by spectrophotometry studying the Cu^2+–L2 systems at the absorption band of Cu^2+ complexes at [H^+] = […] in the wavelength range 210–350 nm. The concentrations of Cu^2+ and L2 were 0.72 mM. The H^+ concentration in the samples was adjusted with the addition of calculated amounts of 3 M HCl. (I = [Na^+] + [H^+] = 0.15, [H^+] ≤ 0.15 M). The samples were kept at 25 °C for 1 week. The absorbance values of the samples were determined at 11 wavelengths (260, 269, 278, 287, 296, 305, 314, 323, 332, 341, and 350 nm). For the calculations of the stability and protonation constants of the […], the molar absorptivities of CuCl2, CuL2, Cu(HL2), Cu(H2L2), and Cu(H3L2) were determined by recording the spectra of 1.0 × 10^–3, 3.0 × 10^–4, 6.0 × 10^–4, and 9.0 × 10^–4 M solutions of CuCl2 and CuL2 in the pH range 1.7–7.5. The pH was adjusted by stepwise addition of concentrated NaOH or HCl solutions. The spectrophotometric measurements were made with the use of a PerkinElmer Lambda 365 UV–vis spectrophotometer at 25 °C, using 1.0 cm cells. The protonation and stability constants were calculated with the PSEQUAD program.[35]
The stability and protonation constants of CaII-, ZnII-, CuII- and GdIII-complexes of L2, expressed by Eqs. (S2) and (S3), were determined by pH-potentiometry and spectrophotometry at 25 °C in 0.15 M […]
where i=0, 1, 2, 3. The KML and KMHiL values of CaII-, ZnII- and CuII-L2 complexes were calculated from the pH-potentiometric titration data obtained at 1:1 metal to ligand concentration ratios. In the calculations, the best fitting of the mL NaOH – pH data was obtained by assuming the formation of […]
ML, MHL, MH2L and MH3L species. […]
– pH data of the “out-of-cell” samples, which had equilibrium pH values in the range of 2.0 – 4.0.
For the complete characterization of the Gd3+-L2 system, the GdL2 complex (which is formed completely at about pH=3.5) was titrated with 0.2 M NaOH solution in the pH range 3.5 – 12.0.
(also on this page, place not known: MH 2L H3L w as derivative s “out -of-cage” *Ln(H 2DOTA)), groups , Ln III-ion donor s . Ln III system. 11,12 th out -of-cage * KGd(H2L) Gd 3+ - ligand 2. 0 Gd 3+-L2 GdL 2 is pH= 3.5) M pH ]L][M[ ]ML[K ML = ]H][LMH[ ]LMH[K 1i i LMHi + − = ]LH][Ln[ )]LH(Ln[K 2 3 2 )LH(Ln 2 + * =) […]
the deprotonation of the Gd(HL) and GdL species, respectively. […]
By taking into account the protonation constants of the ligand L2, the stability constant of the *Gd(H2L2) intermediate and the stability and protonation constant of the GdL2 complex, the species distribution of the Gd3+ - L2 system was calculated (Figure S1). […]
Then, the stability and protonation constants of CuL2 were determined by spectrophotometry. […]

O=C(O)CN1CCN(CC(=O)O)CCN(C[C@@H](O)C(=O)O)CCN(CC(=O)O)CC1 [L2, (R)2,2′,2″-(10-(2-Carboxy-2-hydroxyethyl)-1,4,7,10-tetraazacyclododecane-1,4,7-triyl) Triacetic Acid]
CuH2L (log K) (0.15 M NaCl, 25 °C): 3.36 (2) | CuH3L (log K) (0.15 M NaCl, 25 °C): 1.36 (8) | CuHL (log K, protonation constant of the complex) (0.15 M NaCl, 25 °C): 3.84 (2) | CuL (log K, stability constant) (spectrophotometry, I = [Na^+]+[H^+] = 0.15 M, [H^+] ≤ 0.15 M, 298 K): 21.87 (6)
